# Assays:
# 3T3-L1 cells = assay: Adipocyte differentiation of 3T3-L1 cells, Oil-red O staining; type: cell-based, mouse; conditions: for adipose differentiation: amount dependent
# Description: (§1) HEK293 (human embryonic kidney) cells were obtained from the American Type Culture Collection (Manassas, Va.). 3T3-L1 and 3T3-F442A preadipocytes were kindly given by Dr. Jae-Woo Kim (Yonsei University, Seoul, Korea). Cells were cultured in DMEM supplemented with 10% fetal bovine serum (FBS). Differentiation of 3T3-L1 cells was induced with 1 μM dexamethasone, 500 μM 3-isobutyl-a-methylxanthine, and 5 μg/ml of insulin (DMI), which is designated DMI. From 2 to 8 days after DMI treatment, cells were maintained in DMEM containing 10% FBS and 1 μg/ml of insulin and the medium was changed every other day. Adipocyte differentiation of hADSCs was induced with DMI and 200 μM indomethacin in α-MEM supplemented with 10% FBS. Cells were incubated in 5% CO2 and 20% O2 at 37° C.
# Adipocytes were fixed with 3.7% of formalin and stained with 0.3% Oil-red-O solution (Sigma-Aldrich) dissolved in isopropanol. 0.5% Oil-red-O (Sigma-Aldrich) was dissolved in isopropanol. Oil-red-O stock solution and H2O were mixed at a ratio of 6:4 and filtered. Then 60% Oil-red-O stock solution was incubated with the cells for 1 h and washed with distilled water and scanned for image.
# PPAR-v [1] = assay: Western blotting of PPAR-v protein expression in 3T3-L1 cells; type: cell-based, mouse
# Description: as §1
# (§2) Proteins in cell lysates were electrophoresed on SDS-polyacrylamide gels and transferred to Immobilon-P membranes (Millipore, Billerica, Mass.). Membranes were preincubated with 5% skim milk in TTBS (Tris-buffered saline containing 0.1% Tween 20) for 30 min and incubated overnight with primary antibody diluted 1:500 to 1:3000 in the TTBS. The membranes were further incubated with a horseradish peroxidase conjugated secondary antibody for 1 h and visualized using Pierce ECL Plus western blotting substrate according to the manufacturer's instruction (Thermo Fisher Scientific, Waltham, Mass.).
# PPAR-v [2] = assay: Quantitative RT-PCR of PPAR-v mRNA in 3T3-L1 cells; type: cell-based, mouse
# Description: as §1
# (§3) Total RNAs were isolated from cultured cells using TRIzol® (Invitrogen). The EasyScript™ cDNA Synthesis Kit (Applied Biological Materials Inc., Richmond, Canada) was used to synthesize cDNAs. The level of each cDNA was relatively quantified by being divided by the 18S rRNA level in the corresponding sample.
# C/EBP-β [3] = assay: Quantitative RT-PCR of C/EBP-β mRNA in 3T3-L1 cells; type: cell-based, mouse
# Description: as §1, §3
# FABP4 = assay: Quantitative RT-PCR of FABP4 mRNA in 3T3-L1 cells; type: cell-based, mouse
# Description: as §1, §3
# CD36 = assay: Quantitative RT-PCR of CD36 mRNA in 3T3-L1 cells; type: cell-based, mouse
# Description: as §1, §3
# C/EBP-β [4] = assay: Western blotting of C/EBP-β protein expression in 3T3-L1 cells; type: cell-based, mouse; conditions: FIG. 1E
# Description: as §1, §2
# PPAR-v [5] = assay: Ubiquitination of PPAR-v, western blotting; type: cell-based; conditions: neddylation inhibited using siNEDD8; FIG. 3E
# Description: as §2
# To precipitate HA-tagged proteins, transfected cells were lysed in a buffer containing 5 mM EDTA, 50 mM Tris-Cl, 100 mM NaCl, 0.1% NP-40, and the protease inhibitor cocktail (Sigma-Aldrich). Cell lysates (1 mg proteins) were incubated with EZview™ anti-HA affinity beads sequentially incubated with a primary antibody (10 μg/mL) and protein A/G-Sepharose beads (GE Healthcare, Uppsala, Sweden) at 4° C. for 4 h. Pull down proteins were eluted in a 2×SDS denaturing buffer and subjected to Western blotting as described above. For HA-bead immunoprecipitation, 1 mg of protein was incubated with 10 ul of HA-bead at 4° C. for 4 h and washed. Then proteins were eluted in a 2×SDS denaturing buffer and electrophoresed in a SDS-PAGE gel and subjected to Western blotting as described above.
# [6] = 3T3-L1 cells treated with 0.5 μM MLN4924 before the differentiation, 0, 2, 4, 6, 8 days, FIG. 2B
# [7] = knock down after the cells were induced to differentiation, FIG. 1D
# [8] = siNEDD8 knock down, PCR at 0, 2, 4, 6, and 8 days after start of differentiation, FIG. 1F
compound,measurement,setting,value
"NS(=O)(=O)OC[C@@H]1C[C@@H](n2ccc3c(N[C@H]4CCc5ccccc54)ncnc32)C[C@@H]1O [MLN4924, reference compound]",differentiation of 3T3L1 cells into adipocytes,"3T3-L1 cells; MLN4924 0.1 and 0.5 μM, before and after differentiation was induced, Oil-red O, FIG. 2A",suppressed
same,expression of PPAR-v protein,"PPAR-v [1]; 3T3-L1 cells treated with MLN4924 after the differentiation was induced, FIG. 2A",suppresses
same,PPAR-v at the mRNA level,PPAR-v [2]; [6],decreased
same,C/EBP-β at the mRNA level,C/EBP-β [3]; [6],decreased
same,FABP4 at the mRNA level,FABP4; [6],decreased
same,CD36 at the mRNA level,CD36; [6],decreased
"COc1ccc(C2=NC(c3ccc(Cl)cc3)C(c3ccc(Cl)cc3)N2C(=O)N2CCNC(=O)C2)c(OC(C)C)c1 (stereo not drawn) [nutlin-3, 4-[4,5-Bis(4-chlorophenyl)-2-(2-isopropoxy-4-methoxy-phenyl)-4,5-dihydro-imidazole-1-carbonyl]-piperazin-2-one, reference compound]",adipose differentiation,"3T3-L1 cells; nutlin-3 10 and 20 μM, before and after differentiation was induced, FIG. 5D",suppressed
"siMDM2: MDM2 siRNA used in 3T3-L1; probably the mouse one, SEQ ID NO: 8, 5′-GCAAUGAUCUACAGAAAUUUAGUGG-3′ (other strand not given here)",adipose differentiation,"3T3-L1 cells; 3T3-L1 transfected with siMDM2 10, 20 or 50 nM, differentiation induced after 2 days, FIG. 5C",suppressed
"siNEDD8: siRNA against NEDD8; Table 1 siNEDD8 is human, SEQ ID NO: 1; text does not say which sequence was used in 3T3-L1 (CAGACAAGGUGGAGCGAAUCAAGGA; other strand not given here)",adipogenesis,3T3-L1 cells; [7],suppressed
same,expression of PPAR-v,PPAR-v [1]; [7],suppressed
same,expression of PPAR-v,"PPAR-v [1]; knock down before induction, 0, 2, 4, 6 and 8 days during differentiation, compared to control, time dependent, FIG. 1E",decreased
same,expression of C/EBP-β,"C/EBP-β [4]; 0, 2, 4, 8, 16, 24 h after the initiation of differentiation",decreased
same,expression of C/EBP-β,"C/EBP-β [4]; knock down before induction, 0, 2, 4, 6 and 8 days during differentiation, compared to control, time dependent",decreased
same,mRNA expression level of PPAR-v,PPAR-v [2]; [8],decreased
same,mRNA expression level of C/EBP-β,C/EBP-β [3]; [8],decreased
same,mRNA expression level of FABP4,FABP4; [8],decreased
same,mRNA expression level of CD36,CD36; [8],decreased
same,ubiquitination of PPAR-v,PPAR-v [5],increased
